Test [1] has as its system Apt0 (FAM) (DNA, aptamer) CTGTTTGGTAGGCAG
Description: graphene oxide fluorescence assay. To be noted: aptamer 0-250 nM titrated against 1.5 μM MNZ, 2 h.

For test [2], the system named is Apt11 (FAM) (DNA, aptamer) CTGTTTGGTACGCAG
Description: graphene oxide fluorescence assay. To be noted: aptamer 0-250 nM titrated against 1.5 μM MNZ, 2 h.

Test [3] concerns Apt1-3 (DNA, aptamer) CTGTTTGCTACGCAG
Description: exonuclease I/III digestion, SYBR Gold fluorescence. To be noted: 0.25 μM MNZ, 25 °C, aptamer varied.

In test [4] the test system is Apt8 (FAM) (DNA, aptamer) CTGTTTGCTAGGCAG
Description: graphene oxide fluorescence assay. The conditions noted are these: aptamer 0-250 nM titrated against 1.5 μM MNZ, 2 h.

Test [5] deals with Apt1-3 (FAM) (DNA, aptamer) CTGTTTGCTACGCAG
Description: graphene oxide fluorescence assay. To be noted: aptamer 0-250 nM titrated against 1.5 μM MNZ, 2 h; abstract prints error 25.59.

Consider `Cc1ncc([N+](=O)[O-])n1CCO`, for which the Kd came to 154.28 ± 51.87 nM in test [1], 151.49 ± 56.08 nM in test [2], 126.18 ± 41.91 nM in test [4] and 92.60 ± 25.58 nM in test [5]. The binding result in test [3] is on record as “yes”.

Source of the values: paper PMC11327025 (2024).
